{"source": "ChEMBL document CHEMBL5705899", "about": "(Biochem J, 2014)", "key": {"[1]": {"target": "Cyclin-dependent kinase 1/cyclin B1 (Homo sapiens) (UniProt P06493+P14635)", "test": "Inhibition of human CDK1/CycB1 at 1 uM using RBER-CHKtide as substrate in presence of 33P-ATP by ProQinase assay", "type": "protein-complex assay"}, "[2]": {"target": "Protein kinase C eta type (Homo sapiens) (UniProt P24723)", "test": "Inhibition of human PKCeta at 1 uM using histon H2B as substrate in presence of 33P-ATP by ProQinase assay"}, "[3]": {"target": "Serine/threonine-protein kinase DCLK2 (Homo sapiens) (UniProt Q8N568)", "test": "Inhibition of human DCAMKL2 at 1 uM using RBER-CHKtide as substrate in presence of 33P-ATP by ProQinase assay"}, "[4]": {"target": "Serine/threonine-protein kinase BRSK1 (Homo sapiens) (UniProt Q8TDC3)", "sequence (Q8TDC3 whole entry)": "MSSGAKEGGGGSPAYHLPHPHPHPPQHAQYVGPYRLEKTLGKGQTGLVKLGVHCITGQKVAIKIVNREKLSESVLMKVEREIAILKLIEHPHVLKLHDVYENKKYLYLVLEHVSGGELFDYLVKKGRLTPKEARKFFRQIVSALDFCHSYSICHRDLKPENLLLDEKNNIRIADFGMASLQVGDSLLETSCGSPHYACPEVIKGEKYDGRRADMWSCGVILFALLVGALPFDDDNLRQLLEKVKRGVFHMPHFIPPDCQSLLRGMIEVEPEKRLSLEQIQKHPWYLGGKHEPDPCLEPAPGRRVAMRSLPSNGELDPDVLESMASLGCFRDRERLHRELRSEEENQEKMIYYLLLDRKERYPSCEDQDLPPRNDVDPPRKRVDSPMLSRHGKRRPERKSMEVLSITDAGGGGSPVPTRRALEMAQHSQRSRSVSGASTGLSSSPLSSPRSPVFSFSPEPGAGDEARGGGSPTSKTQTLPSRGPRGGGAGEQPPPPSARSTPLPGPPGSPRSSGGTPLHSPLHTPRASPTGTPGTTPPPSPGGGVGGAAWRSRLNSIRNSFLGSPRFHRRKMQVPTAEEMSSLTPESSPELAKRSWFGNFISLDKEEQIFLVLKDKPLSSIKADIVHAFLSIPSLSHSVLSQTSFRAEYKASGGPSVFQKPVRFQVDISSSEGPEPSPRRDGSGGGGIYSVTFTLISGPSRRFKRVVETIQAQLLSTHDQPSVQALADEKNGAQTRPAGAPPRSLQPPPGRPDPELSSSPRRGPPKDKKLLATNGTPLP", "test": "Inhibition of human BRSK1 at 1 uM using RBER-CHKtide as substrate in presence of 33P-ATP by ProQinase assay"}, "[5]": {"target": "Ribosomal protein S6 kinase alpha-4 (Homo sapiens) (UniProt O75676)", "test": "Inhibition of human RPS6KA4 at 1 uM using RBER-CHKtide as substrate in presence of 33P-ATP by ProQinase assay"}, "[6]": {"target": "Death-associated protein kinase 3 (Homo sapiens) (UniProt O43293)", "sequence (O43293 whole entry, looked up)": "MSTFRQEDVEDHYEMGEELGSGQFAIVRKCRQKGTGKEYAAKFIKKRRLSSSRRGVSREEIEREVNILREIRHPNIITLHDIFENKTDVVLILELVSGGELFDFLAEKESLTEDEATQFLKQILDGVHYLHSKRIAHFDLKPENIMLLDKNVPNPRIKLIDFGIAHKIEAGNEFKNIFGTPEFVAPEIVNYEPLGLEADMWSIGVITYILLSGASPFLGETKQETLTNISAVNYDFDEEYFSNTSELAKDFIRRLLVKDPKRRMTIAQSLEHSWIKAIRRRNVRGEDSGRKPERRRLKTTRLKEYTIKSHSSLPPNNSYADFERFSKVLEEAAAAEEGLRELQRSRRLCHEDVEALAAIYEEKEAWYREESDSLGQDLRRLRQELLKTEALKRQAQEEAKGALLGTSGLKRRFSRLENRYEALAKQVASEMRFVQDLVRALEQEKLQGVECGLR", "test": "Inhibition of human DAPK3 at 1 uM using RBER-GSK3 as substrate in presence of 33P-ATP by ProQinase assay"}, "[7]": {"target": "Protein kinase C beta type (Homo sapiens) (UniProt P05771)", "test": "Inhibition of human PKCbeta1 at 1 uM using 3xChocktide-PKC as substrate in presence of 33P-ATP by ProQinase assay"}, "[8]": {"target": "Phosphatidylinositol 4-phosphate 5-kinase type-1 alpha (Homo sapiens, UniProt Q99755)", "test": "Inhibition of PIP5K1A (unknown origin) using D-myo-PIP as substrate incubated for 45 mins by ADP-Glo assay"}, "[9]": {"target": "Fibroblast growth factor receptor 4 (Homo sapiens) (UniProt P22455)", "test": "Inhibition of human FGFR4 at 1 uM using polyEy as substrate in presence of 33P-ATP by ProQinase assay"}, "[10]": {"target": "Misshapen-like kinase 1 (Homo sapiens) (UniProt Q8N4C8)", "test": "Inhibition of human MINK1 at 1 uM using RBER-CHKtide as substrate in presence of 33P-ATP by ProQinase assay"}, "[11]": {"target": "Tyrosine-protein kinase Fes/Fps (Homo sapiens) (UniProt P07332)", "test": "Inhibition of human FES at 1 uM using polyEY as substrate in presence of 33P-ATP by ProQinase assay"}, "[12]": {"target": "Mitogen-activated protein kinase 9 (Homo sapiens) (UniProt P45984)", "test": "(§1) Inhibition of recombinant human N-terminal His6-tagged JNK2 (1 to 424 residues) expressed in baculovirus infected Sf21 cells assessed as remaining activity at 1 uM using ATF2 as substrate incubated for 30 mins in presence of [gamma-33P]ATP by filter binding method relative to control"}, "[13]": {"tested_on": "TGF-beta receptor type-1 (Homo sapiens), P36897 [T204D]", "test": "as §1, with “GST-tagged TGFBR1 T204D mutant (200” for “His6-tagged JNK2 (1”, “501” for “424”, “crosstide peptide” for “ATF2”"}, "[14]": {"target": "RAC-alpha serine/threonine-protein kinase (Homo sapiens) (UniProt P31749)", "sequence (P31749 whole entry)": "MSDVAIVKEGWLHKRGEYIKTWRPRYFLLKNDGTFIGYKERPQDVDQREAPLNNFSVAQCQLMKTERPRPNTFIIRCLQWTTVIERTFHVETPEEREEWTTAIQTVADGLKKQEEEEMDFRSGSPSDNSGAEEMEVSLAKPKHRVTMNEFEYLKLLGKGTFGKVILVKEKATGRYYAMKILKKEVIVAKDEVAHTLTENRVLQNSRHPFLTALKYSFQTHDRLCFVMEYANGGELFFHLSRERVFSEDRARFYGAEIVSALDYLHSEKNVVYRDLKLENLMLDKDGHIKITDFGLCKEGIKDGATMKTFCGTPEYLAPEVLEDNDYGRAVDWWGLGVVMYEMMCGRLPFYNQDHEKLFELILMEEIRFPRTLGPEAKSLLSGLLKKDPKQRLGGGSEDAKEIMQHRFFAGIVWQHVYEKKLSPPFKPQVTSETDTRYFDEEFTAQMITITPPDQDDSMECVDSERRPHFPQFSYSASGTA", "test": "Inhibition of human AKT1 at 1 uM using RBER-GSK3 as substrate in presence of 33P-ATP by ProQinase assay"}, "[15]": {"target": "Insulin-like growth factor 1 receptor (Homo sapiens) (UniProt P08069)", "test": "Inhibition of human IGF1R at 1 uM using polyEY as substrate in presence of 33P-ATP by ProQinase assay"}, "[16]": {"target": "AMPK alpha1/beta2/gamma1 (Homo sapiens) (UniProt O43741+P54619+Q13131)", "test": "Inhibition of recombinant N-terminal His6-tagged human AMPKalpha1 (11 to 559 residues)/AMPKbeta2 (1 to 272 residues)/AMPKgamma1 (1 to 331 residues) expressed in baculovirus infected Sf21 cells assessed as remaining activity at 1 uM using SAMS as substrate incubated for 30 mins in presence of [gamma-33P]ATP relative to control"}, "[17]": {"target": "Proto-oncogene tyrosine-protein kinase Src (Homo sapiens) (UniProt P12931)", "test": "Inhibition of human GST/His-tagged SRC at 1 uM using PolyEY as substrate in presence of 33P-ATP by ProQinase assay"}, "[18]": {"target": "Receptor tyrosine-protein kinase erbB-4 (Homo sapiens) (UniProt Q15303)", "sequence (Q15303 whole entry)": "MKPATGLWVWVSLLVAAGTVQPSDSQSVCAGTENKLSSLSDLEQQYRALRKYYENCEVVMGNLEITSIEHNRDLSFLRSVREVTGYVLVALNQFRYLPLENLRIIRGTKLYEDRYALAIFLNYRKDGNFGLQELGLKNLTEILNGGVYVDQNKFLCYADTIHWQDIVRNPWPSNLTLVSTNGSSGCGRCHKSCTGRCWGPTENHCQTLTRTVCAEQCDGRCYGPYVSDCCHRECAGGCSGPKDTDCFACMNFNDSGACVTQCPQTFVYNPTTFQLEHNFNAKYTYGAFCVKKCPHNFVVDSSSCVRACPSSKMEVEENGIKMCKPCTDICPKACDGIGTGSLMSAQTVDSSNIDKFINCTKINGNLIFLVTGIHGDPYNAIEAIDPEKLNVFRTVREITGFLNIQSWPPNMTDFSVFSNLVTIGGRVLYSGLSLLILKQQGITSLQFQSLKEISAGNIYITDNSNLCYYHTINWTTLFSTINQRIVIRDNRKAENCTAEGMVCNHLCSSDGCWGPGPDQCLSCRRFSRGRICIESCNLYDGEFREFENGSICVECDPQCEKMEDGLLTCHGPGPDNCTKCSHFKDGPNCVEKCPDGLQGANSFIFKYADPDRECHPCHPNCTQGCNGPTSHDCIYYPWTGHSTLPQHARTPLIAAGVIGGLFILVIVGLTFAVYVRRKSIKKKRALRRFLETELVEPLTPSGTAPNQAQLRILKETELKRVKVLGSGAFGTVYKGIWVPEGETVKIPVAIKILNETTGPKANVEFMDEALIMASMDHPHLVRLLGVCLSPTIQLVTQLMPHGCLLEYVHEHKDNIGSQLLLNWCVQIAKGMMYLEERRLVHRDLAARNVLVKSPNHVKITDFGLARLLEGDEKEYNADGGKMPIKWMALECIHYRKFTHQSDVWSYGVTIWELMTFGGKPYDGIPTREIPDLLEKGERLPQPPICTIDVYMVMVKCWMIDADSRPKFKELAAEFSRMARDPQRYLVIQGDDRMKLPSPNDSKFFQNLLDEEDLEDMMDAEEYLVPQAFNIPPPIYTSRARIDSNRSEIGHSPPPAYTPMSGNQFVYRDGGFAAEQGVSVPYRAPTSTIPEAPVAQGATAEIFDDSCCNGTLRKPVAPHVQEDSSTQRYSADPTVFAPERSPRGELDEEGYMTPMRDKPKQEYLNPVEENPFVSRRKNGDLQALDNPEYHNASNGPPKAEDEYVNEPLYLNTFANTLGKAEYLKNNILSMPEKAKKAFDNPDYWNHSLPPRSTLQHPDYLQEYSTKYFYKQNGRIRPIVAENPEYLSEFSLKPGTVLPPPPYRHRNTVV", "test": "Inhibition of human ERBB4 at 1 uM using polyEy as substrate in presence of 33P-ATP by ProQinase assay"}, "[19]": {"target": "Ephrin type-B receptor 3 (Homo sapiens) (UniProt P54753)", "test": "Inhibition of human EPHB3 at 1 uM using polyEY as substrate in presence of 33P-ATP by ProQinase assay"}, "[20]": {"target": "Ribosomal protein S6 kinase alpha-3 (Homo sapiens) (UniProt P51812)", "sequence (P51812 whole entry, the tested form may be a part)": "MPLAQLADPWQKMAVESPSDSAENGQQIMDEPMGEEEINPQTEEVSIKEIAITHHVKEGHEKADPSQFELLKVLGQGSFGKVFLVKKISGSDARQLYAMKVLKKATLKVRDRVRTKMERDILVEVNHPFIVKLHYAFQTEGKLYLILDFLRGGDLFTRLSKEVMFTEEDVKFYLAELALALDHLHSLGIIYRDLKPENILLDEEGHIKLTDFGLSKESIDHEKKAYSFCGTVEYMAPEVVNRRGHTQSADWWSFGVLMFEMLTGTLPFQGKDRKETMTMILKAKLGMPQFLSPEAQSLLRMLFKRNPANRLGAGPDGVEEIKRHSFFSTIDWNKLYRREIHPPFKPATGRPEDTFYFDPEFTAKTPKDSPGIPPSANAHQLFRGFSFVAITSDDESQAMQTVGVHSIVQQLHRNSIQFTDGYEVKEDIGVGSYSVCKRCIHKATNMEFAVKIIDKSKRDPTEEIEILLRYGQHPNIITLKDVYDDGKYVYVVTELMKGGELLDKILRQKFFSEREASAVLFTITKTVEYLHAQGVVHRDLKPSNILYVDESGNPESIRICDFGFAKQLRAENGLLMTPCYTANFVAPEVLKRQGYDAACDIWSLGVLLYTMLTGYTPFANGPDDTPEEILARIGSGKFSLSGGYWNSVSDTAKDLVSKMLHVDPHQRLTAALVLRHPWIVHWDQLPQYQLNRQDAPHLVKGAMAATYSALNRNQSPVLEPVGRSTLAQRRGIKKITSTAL", "test": "Inhibition of recombinant human N-terminal His6-tagged RSK2 (2 to 740 residues) expressed in baculovirus infected Sf21 cells assessed as remaining activity at 1 uM using KKLNRTLSVA as substrate incubated for 30 mins in presence of [gamma-33P]ATP by filter binding method relative to control"}, "[21]": {"target": "Death-associated protein kinase 2 (Homo sapiens) (UniProt Q9UIK4)", "sequence (Q9UIK4 whole entry, looked up)": "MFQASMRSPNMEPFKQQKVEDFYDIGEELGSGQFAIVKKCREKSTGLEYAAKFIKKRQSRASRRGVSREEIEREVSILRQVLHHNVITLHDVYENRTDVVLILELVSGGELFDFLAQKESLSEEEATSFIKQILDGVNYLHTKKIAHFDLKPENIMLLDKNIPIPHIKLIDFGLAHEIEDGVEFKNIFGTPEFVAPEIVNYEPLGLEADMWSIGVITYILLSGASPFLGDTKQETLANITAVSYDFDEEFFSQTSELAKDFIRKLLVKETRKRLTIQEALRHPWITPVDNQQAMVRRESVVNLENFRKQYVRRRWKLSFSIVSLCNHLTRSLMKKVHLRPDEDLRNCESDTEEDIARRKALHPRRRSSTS", "test": "Inhibition of human DAPK2 at 1 uM using RB-S6P as substrate in presence of 33P-ATP by ProQinase assay"}, "[22]": {"tested_on": "PI3-kinase p110-alpha/p85-alpha (Homo sapiens), P27986+P42336 [E545K]", "test": "Inhibition of recombinant human N-terminal His6-tagged PI3Kalpha E545K mutant (2 to 1068 residues)/p85A (1 to 724 residues) expressed in baculovirus expression system at 1 uM using diC8 PIP2 as substrate incubated for 80 mins by ADP-Glo assay"}, "[23]": {"target": "RAC-beta serine/threonine-protein kinase (Homo sapiens) (UniProt P31751)", "test": "Inhibition of human AKT2 at 1 uM using RBER-GSK3 as substrate in presence of 33P-ATP by ProQinase assay"}, "[24]": {"target": "NT-3 growth factor receptor (Homo sapiens) (UniProt Q16288)", "sequence (Q16288 32-839 limits assumed)": "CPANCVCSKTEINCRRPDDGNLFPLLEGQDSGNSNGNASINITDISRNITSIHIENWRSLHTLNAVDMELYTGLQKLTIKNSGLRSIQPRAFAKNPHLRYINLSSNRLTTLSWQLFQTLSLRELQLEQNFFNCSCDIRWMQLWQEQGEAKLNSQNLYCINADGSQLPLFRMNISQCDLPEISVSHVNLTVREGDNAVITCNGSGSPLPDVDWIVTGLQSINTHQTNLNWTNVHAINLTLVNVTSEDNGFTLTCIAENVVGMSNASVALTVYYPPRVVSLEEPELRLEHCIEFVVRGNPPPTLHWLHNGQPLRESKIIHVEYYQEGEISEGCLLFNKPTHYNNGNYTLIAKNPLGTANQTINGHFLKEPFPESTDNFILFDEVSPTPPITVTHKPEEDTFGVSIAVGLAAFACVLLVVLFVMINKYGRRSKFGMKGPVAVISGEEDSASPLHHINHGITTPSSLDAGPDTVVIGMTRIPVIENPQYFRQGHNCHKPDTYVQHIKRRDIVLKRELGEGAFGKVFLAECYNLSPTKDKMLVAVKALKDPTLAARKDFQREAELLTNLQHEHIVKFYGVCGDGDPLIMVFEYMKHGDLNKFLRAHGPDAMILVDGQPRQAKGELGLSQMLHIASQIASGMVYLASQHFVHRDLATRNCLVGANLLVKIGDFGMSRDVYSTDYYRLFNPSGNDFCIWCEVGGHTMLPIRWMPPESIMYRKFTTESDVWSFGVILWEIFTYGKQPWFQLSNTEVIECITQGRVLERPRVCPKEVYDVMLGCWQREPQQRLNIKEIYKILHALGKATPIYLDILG", "test": "Inhibition of human TRKC at 1 uM using polyEy as substrate in presence of 33P-ATP by ProQinase assay"}, "[25]": {"target": "Glycogen synthase kinase-3 beta (Homo sapiens) (UniProt P49841)", "test": "Inhibition of human GSK3beta at 1 uM using RBER-CHKtide as substrate in presence of 33P-ATP by ProQinase assay"}, "[26]": {"target": "Tyrosine-protein kinase CSK (Homo sapiens) (UniProt P41240)", "test": "Inhibition of recombinant human N-terminal GST-tagged CSK (1 to 450 residues) expressed in Escherichia coli assessed as remaining activity at 1 uM Cdc2 peptide as substrate incubated for 30 mins in presence of [gamma-33P]ATP by filter binding method relative to control"}, "[27]": {"target": "Inhibitor of nuclear factor kappa-B kinase subunit alpha (Homo sapiens) (UniProt O15111)", "test": "Inhibition of human IKKalpha at 1 uM using RBER-CHKtide as substrate in presence of 33P-ATP by ProQinase assay"}}, "note": "The source made the active and inactive calls. No cut-off for these calls is given here.", "data": [{"molecule": "CC(C)(O)CNc1ncc(-c2ccnc(Nc3ccnc(Cl)c3)n2)c(CC2CC2)n1", "values": [{"measurement": "inhibition", "setting": "[1]", "result": "inactive"}, {"measurement": "inhibition", "setting": "[2]", "result": "inactive"}, {"measurement": "inhibition", "setting": "[3]", "result": "inactive"}, {"measurement": "inhibition", "setting": "[4]", "result": "inactive"}, {"measurement": "inhibition", "setting": "[5]", "result": "inactive"}, {"measurement": "inhibition", "setting": "[6]", "result": "inactive"}, {"measurement": "inhibition", "setting": "[7]", "result": "inactive"}, {"measurement": "IC50", "setting": "[8]", "result": 11.3, "unit": "µM"}, {"measurement": "inhibition", "setting": "[9]", "result": "inactive"}, {"measurement": "inhibition", "setting": "[10]", "result": "inactive"}, {"measurement": "inhibition", "setting": "[11]", "result": "inactive"}, {"measurement": "Activity", "setting": "[12]", "result": 113, "unit": "%"}, {"measurement": "Activity", "setting": "[13]", "result": 123, "unit": "%"}, {"measurement": "inhibition", "setting": "[14]", "result": "inactive"}, {"measurement": "inhibition", "setting": "[15]", "result": "inactive"}, {"measurement": "Activity", "setting": "[16]", "result": 96, "unit": "%"}, {"measurement": "inhibition", "setting": "[17]", "result": "inactive"}, {"measurement": "inhibition", "setting": "[18]", "result": "inactive"}, {"measurement": "inhibition", "setting": "[19]", "result": "inactive"}, {"measurement": "Activity", "setting": "[20]", "result": 103, "unit": "%"}, {"measurement": "inhibition", "setting": "[21]", "result": "inactive"}, {"measurement": "inhibition", "setting": "[22]", "result": "inactive"}, {"measurement": "inhibition", "setting": "[23]", "result": "inactive"}, {"measurement": "inhibition", "setting": "[24]", "result": "inactive"}, {"measurement": "inhibition", "setting": "[25]", "result": "inactive"}, {"measurement": "Activity", "setting": "[26]", "result": 132, "unit": "%"}, {"measurement": "inhibition", "setting": "[27]", "result": "inactive"}]}]}
